We go through 3 compounds from ChEMBL document CHEMBL2390894, “Quantitative analysis of histone demethylase probes using fluorescence polarization” (J Med Chem, 2013).

Assay [1] deals with T1, Lysine-specific demethylase 6B (Homo sapiens, UniProt O15054). In words: Inhibition of recombinant 6xHis-tagged JMJD3 (unknown origin) expressed in Escherichia coli BL21.
Assay [2] has as its target T2, Lysine-specific demethylase 4A (Homo sapiens, UniProt O75164).
T2 sequence (O75164 whole entry): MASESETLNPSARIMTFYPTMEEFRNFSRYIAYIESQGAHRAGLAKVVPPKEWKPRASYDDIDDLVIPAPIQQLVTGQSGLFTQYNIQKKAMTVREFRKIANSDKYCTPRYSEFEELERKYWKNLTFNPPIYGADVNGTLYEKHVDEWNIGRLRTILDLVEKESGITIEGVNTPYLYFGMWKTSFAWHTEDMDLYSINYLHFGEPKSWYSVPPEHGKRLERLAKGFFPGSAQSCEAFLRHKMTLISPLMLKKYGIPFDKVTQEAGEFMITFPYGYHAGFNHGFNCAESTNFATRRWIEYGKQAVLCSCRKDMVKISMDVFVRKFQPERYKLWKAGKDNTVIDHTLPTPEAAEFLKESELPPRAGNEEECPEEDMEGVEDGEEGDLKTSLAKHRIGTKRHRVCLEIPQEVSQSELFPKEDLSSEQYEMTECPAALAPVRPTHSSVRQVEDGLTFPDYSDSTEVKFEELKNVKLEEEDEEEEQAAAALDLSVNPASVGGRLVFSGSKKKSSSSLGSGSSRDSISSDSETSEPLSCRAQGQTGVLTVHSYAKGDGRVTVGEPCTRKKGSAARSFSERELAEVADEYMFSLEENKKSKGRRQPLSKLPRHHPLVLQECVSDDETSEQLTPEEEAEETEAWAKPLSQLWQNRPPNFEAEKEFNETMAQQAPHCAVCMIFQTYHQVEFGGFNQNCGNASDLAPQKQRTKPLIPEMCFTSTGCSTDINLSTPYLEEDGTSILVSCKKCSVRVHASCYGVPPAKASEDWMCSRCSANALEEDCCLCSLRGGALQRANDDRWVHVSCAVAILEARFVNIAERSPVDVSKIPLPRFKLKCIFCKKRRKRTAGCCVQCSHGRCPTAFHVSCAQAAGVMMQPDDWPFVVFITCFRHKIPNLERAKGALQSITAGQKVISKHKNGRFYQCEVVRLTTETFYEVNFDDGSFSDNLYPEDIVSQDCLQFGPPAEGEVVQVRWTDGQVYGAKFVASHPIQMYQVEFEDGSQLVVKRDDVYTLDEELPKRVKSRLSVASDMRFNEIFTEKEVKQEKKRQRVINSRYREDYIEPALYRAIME
The experiment in a line: Inhibition of JMJD2A (unknown origin).

The target in assay [3] is T3, Lysine-specific demethylase 2A (Homo sapiens, UniProt Q9Y2K7).
T3 sequence (Q9Y2K7 whole entry): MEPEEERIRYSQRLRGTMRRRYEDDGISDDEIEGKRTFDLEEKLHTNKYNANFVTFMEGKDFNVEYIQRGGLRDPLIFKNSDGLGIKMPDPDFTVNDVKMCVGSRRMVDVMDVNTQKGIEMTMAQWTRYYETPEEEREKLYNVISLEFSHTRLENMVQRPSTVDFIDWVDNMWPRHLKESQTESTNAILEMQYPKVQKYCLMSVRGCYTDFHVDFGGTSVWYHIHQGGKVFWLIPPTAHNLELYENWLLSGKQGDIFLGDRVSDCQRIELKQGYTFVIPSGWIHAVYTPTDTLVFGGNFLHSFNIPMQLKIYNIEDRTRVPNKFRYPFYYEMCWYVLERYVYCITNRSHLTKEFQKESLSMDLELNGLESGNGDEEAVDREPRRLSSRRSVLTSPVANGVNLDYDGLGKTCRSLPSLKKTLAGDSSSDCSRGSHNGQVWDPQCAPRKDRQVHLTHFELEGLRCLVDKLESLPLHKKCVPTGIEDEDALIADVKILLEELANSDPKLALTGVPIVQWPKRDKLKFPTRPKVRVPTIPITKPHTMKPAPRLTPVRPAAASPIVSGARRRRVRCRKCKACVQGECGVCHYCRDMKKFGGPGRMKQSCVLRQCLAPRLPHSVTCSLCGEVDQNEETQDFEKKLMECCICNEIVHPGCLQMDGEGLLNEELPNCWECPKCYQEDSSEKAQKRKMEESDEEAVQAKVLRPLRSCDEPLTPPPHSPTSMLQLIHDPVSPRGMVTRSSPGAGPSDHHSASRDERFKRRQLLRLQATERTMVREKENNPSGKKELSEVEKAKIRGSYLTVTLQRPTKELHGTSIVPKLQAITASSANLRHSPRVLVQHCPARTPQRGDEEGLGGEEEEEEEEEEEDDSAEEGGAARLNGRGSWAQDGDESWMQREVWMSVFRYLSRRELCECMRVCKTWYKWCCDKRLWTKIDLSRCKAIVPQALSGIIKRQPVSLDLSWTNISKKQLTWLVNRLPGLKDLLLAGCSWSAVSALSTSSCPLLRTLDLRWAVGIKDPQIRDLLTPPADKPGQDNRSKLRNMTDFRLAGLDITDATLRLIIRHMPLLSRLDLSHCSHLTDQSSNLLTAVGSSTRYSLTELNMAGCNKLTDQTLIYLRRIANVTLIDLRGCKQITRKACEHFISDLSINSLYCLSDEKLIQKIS
In words: Binding affinity to recombinant 6xHis-tagged JHDM1A (unknown origin) expressed in Escherichia coli BL21 by fluorescence polarization assay in presence of Ni2+. (Polarisation of emitted light reports the rotation of a fluorescent probe.)

In assay [4] the target is T4, Lysine-specific demethylase 4A (Homo sapiens) (UniProt O75164).
T4 sequence (whole entry): T2 sequence (O75164 whole entry)
The experiment in a line: Binding affinity to JMJD2A (unknown origin) up to 10 uM by fluorescence polarization assay.

For assay [5], the target named is T3, Lysine-specific demethylase 2A. The experiment in a line: Binding affinity to recombinant 6xHis-tagged JHDM1A (unknown origin) expressed in Escherichia coli BL21 by fluorescence polarization assay in presence of Co2+.
Assay [6] shares this target. The experiment in a line: Binding affinity to recombinant 6xHis-tagged JHDM1A (unknown origin) expressed in Escherichia coli BL21 by fluorescence polarization assay.
Assay [7] deals with T1, Lysine-specific demethylase 6B. The experiment in a line: Binding affinity to recombinant 6xHis-tagged JMJD3 (unknown origin) expressed in Escherichia coli BL21 up to 10 uM by fluorescence polarization assay.
For assay [8], the target named is T3, Lysine-specific demethylase 2A. The experiment in a line: Inhibition of recombinant 6xHis-tagged JHDM1A (unknown origin) expressed in Escherichia coli BL21 using SAPATGGVK(Me2)KPHRYRPGTVAL as substrate incubated for 15 mins prior to substrate addition measured after 50 mins by rapid fire mass spectrophotometric analysis.
For assay [9] the target is unchanged. The experiment in a line: Binding affinity to recombinant 6xHis-tagged JHDM1A (unknown origin) expressed in Escherichia coli BL21 by fluorescence polarization assay in presence of Fe2+ and sodium ascorbate.

Each structure is given as a SMILES string. Calls of active or inactive are those of the source. The rule behind the calls is not given here.

T1 sequence (O15054 whole entry): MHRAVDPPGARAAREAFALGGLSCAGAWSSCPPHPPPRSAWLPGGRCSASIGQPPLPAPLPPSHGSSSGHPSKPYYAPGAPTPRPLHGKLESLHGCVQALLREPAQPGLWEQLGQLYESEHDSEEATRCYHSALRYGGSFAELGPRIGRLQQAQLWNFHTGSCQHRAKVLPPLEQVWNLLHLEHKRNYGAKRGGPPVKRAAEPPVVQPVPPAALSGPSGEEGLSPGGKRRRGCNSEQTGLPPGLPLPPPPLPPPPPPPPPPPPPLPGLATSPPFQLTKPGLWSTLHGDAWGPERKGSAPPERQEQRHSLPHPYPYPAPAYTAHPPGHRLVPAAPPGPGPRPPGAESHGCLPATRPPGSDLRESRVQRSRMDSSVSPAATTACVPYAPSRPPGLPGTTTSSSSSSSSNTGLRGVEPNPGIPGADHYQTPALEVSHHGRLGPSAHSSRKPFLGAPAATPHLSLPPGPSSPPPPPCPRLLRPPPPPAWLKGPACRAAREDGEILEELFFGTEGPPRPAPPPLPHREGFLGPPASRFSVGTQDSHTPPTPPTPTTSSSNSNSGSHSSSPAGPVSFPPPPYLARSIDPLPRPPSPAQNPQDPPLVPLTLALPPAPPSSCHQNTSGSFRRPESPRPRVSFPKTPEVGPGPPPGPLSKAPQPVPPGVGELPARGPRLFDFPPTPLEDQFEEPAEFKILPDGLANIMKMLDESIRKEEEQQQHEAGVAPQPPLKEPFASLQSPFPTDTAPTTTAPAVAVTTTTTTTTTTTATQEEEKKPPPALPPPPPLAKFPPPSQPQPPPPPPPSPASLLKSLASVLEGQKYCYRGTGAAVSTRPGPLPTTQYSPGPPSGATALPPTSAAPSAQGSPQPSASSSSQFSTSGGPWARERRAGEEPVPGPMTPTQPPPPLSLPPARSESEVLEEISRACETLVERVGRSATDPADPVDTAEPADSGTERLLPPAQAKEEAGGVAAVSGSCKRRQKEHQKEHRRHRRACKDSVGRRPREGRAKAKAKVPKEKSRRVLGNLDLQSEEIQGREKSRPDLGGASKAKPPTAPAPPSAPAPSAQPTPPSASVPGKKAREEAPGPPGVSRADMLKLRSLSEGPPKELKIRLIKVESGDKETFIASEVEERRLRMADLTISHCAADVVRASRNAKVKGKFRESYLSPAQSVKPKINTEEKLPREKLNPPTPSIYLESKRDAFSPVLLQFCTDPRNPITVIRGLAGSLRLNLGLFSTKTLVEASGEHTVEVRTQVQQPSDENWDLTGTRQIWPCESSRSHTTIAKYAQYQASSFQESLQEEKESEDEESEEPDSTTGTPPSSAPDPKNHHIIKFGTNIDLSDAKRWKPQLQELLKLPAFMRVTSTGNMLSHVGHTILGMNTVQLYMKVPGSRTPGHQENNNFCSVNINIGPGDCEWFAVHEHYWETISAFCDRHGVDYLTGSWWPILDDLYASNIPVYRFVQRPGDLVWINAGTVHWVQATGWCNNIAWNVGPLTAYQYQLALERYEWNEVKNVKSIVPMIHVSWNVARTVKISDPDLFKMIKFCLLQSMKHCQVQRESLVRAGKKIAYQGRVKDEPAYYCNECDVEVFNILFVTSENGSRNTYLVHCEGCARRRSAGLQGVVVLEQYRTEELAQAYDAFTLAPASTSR

Turning to `O=C(O)/C=C/C(=O)N(O)CCCCNCc1ccc(COC(=O)Nc2cccc3ccccc23)cc1`, the concentration for half-maximal inhibition (IC50) (as a rule, the concentration that gives 50% inhibition) in assay [1] stood at 3100 nM; in [2] it was 3300 nM.
As to `NCc1ccc(CN(CCCCN(O)C(=O)/C=C/C(=O)O)C(=S)Nc2ccc(-c3c4ccc(=O)cc-4oc4cc(O)ccc34)c(C(=O)O)c2)cc1`, the Kd (as a rule, the concentration at which binding is half-saturated) in assay [3] was 9.3 nM; in [5], 22 nM; in assay [6] it was 19 nM; in [9], 8.6 nM. Further, the outcome in assay [4] and in [7] was Active. For the same compound, the half-inhibitory concentration (IC50) in assay [1] was found to be 9500 nM; in [2], 23500 nM; in assay [8] it was 900 nM.
`NCc1ccc(CNCCCCN(O)C(=O)/C=C/C(=O)O)cc1`: the IC50 in assay [1] was 7300 nM; in [2] it was 2400 nM; in assay [8], 420 nM.
